pIC50: −log10 of the molar value.
Each compound was assayed against Human Constitutive (Hu C-20S) β5 Active Subunit (Homo sapiens, UniProt P28074) (assay: IC50 determination, human constitutive 20S proteasome β5c (suc-LLVY-AMC hydrolysis)). Settings: Table 3; IC50 against human constitutive β5 active subunit; read-out: Hu-C20S β5.
Type: biochemical

| SMILES | pIC50 |
| --- | --- |
| CC(C)CCS(=O)(=O)N[C@@H](CC(=O)N1CCC[C@@H]1c1ccccc1)C(=O)NC(C)c1nc2ccccc2[nH]1 (stereo partly drawn) [CEN-58, (2S)—N-(1-(1H-Benzo[d]imidazol-2-yl)ethyl)-2-((3-methylbutyl)sulfonamido)-4-oxo-4-((R)-2-phenylpyrrolidin-1-yl)butanamide] | 4.86 |
| CC(C)CCS(=O)(=O)N[C@@H](CC(=O)N1CCC[C@@H]1c1ccccc1)C(=O)N[C@@H](C)c1nc2ccccc2[nH]1 [CEN-59, (S)—N—((S)-1-(1H-Benzo[d]imidazol-2-yl)ethyl)-2-((3-methylbutyl)sulfonamido)-4-oxo-4-((R)-2-phenylpyrrolidin-1-yl)butanamide] | 5.00 |
| Cc1ccc(S(=O)(=O)N[C@@H](CC(=O)NC(C)(C)C)C(=O)NC2(c3nc4c(F)cccc4[nH]3)CC2)cc1 [CEN-69, (S)—N^4-(tert-Butyl)-N^1-(1-(4-fluoro-1H-benzo[d]Imidazol-2-yl)cyclopropyl)-2-((4-methylphenyl)sulfonamido)succinamide] | < 4.00 |
| Cc1ccc(S(=O)(=O)N[C@@H](CCC(=O)NC(C)(C)C)C(=O)NC2(c3nc4c(F)cccc4[nH]3)CC2)cc1 [CEN-70, (S)—N^5-(tert-Butyl)-N^1-(1-(4-fluoro-1H-benzo[d]Imidazol-2-yl)cyclopropyl)-2-((4-methylphenyl)sulfonamido)pentanediamide] | < 4.00 |
| Cc1ccc(S(=O)(=O)N[C@H](C(=O)N[C@@H](C)c2nc3cccc(F)c3[nH]2)[C@@H](C)O)cc1 [CEN-71, (2S,3R)—N—((S)-1-(7-Fluoro-1H-benzo[d]imidazol-2-yl)ethyl)-3-hydroxy-2-((4-methylphenyl)sulfonamido)butanamide] | < 4.00 |
| C[C@H](NC(=O)[C@@H](NC(=O)CCc1ccc(F)cc1)[C@@H](C)O)c1nc2c(F)cccc2[nH]1 [CEN-72, (2S,3R)—N—((S)-1-(4-Fluoro-1H-benzo[d]imidazol-2-yl)ethyl)-2-(3-(4-fluorophenyl)propanamido)-3-hydroxybutanamide] | < 4.00 |
| CC(C)(C)NC(=O)CC[C@H](NC(=O)CCc1ccc(F)cc1)C(=O)NC1(c2nc3cccc(F)c3[nH]2)CC1 [CEN-73, (S)—N5-(tert-Butyl)-N1-(1-(7-fluoro-1H-benzo[d]Imidazol-2-yl)cyclopropyl)-2-(3-(4-fluorophenyl)propanamido)pentanediamide] | < 4.00 |
| C[C@H](NC(=O)[C@@H](N)CC(=O)N1CCC[C@@H]1c1ccccc1)c1ncc(-c2ccccc2F)[nH]1 [CEN-74, (S)-2-Amino-N—((S)-1-(5-(2-fluorophenyl)-1H-imidazol-2-yl)ethyl)-4-oxo-4-((R)-2-phenylpyrrolidin-1-yl)butanamide] | 4.03 |
| Cc1cc(C(=O)N[C@@H](CC(=O)N2CCC[C@@H]2c2ccccc2)C(=O)N[C@@H](C)c2ncc(-c3ccccc3F)[nH]2)no1 [CEN-75, N—((S)-1-(((S)-1-(5-(2-Fluorophenyl)-1H-imidazol-2-yl)ethyl)amino)-1,4-dioxo-4-((R)-2-phenylpyrrolidin-1-yl)butan-2-yl)-5-methylisoxazole-3-carboxamide] | < 4.00 |
| CC(C)CCC(=O)N[C@@H](CC(=O)N1CCCC1)C(=O)N[C@@H](C)c1ncc(-c2ccc(F)cc2F)[nH]1 [CEN-77, N—((S)-1-(((S)-1-(5-(2,4-Difluorophenyl)-1H-imidazol-2-yl)ethyl)amino)-1,4-dioxo-4-(pyrrolidin-1-yl)butan-2-yl)-4-methylpentanamide] | 4.98 |

Continued, values first:

| pIC50 | SMILES |
| --- | --- |
| 4.55 | C[C@H](NC(=O)[C@H](CC(=O)N1CCCC[C@@H]1C)NC(=O)C1CC2(C1)CC(F)(F)C2)c1nc2c(F)cccc2[nH]1 [CEN-57, 6,6-Difluoro-N—((S)-1-(((S)-1-(4-fluoro-1H-benzo[d]imidazol-2-yl)ethyl)amino)-4-((S)-2-methylpiperidin-1-yl)-1,4-dioxobutan-2-yl)spiro[3.3]heptane-2-carboxamide] |
| 4.97 | CC(C)CCS(=O)(=O)N[C@@H](CC(=O)N1CCC[C@@H]1c1ccccc1)C(=O)N[C@H](C)c1nc2ccccc2[nH]1 [CEN-60, (S)—N—((R)-1-(1H-Benzo[d]imidazol-2-yl)ethyl)-2-((3-methylbutyl)sulfonamido)-4-oxo-4-((R)-2-phenylpyrrolidin-1-yl)butanamide] |
| 5.06 | C[C@H](NC(=O)[C@H](CC(=O)N1CCCC1C1CC1)NC(=O)C1CC2(C1)CC(F)(F)C2)c1nc2cccc(F)c2[nH]1 (stereo partly drawn) [CEN-61, N-((2S)-4-(2-Cyclopropylpyrrolidin-1-yl)-1-(((S)-1-(7-fluoro-1H-benzo[d]imidazol-2-yl)ethyl)amino)-1,4-dioxobutan-2-yl)-6,6-difluorospiro[3.3]heptane-2-carboxamide] |
| 5.17 | C[C@H](NC(=O)[C@H](CC(=O)N1CCC[C@H]1c1ccccc1)NC(=O)C1CC2(COC2)C1)c1nc2cccc(F)c2[nH]1 [CEN-63, N—((S)-1-(((S)-1-(7-Fluoro-1H-benzo[d]imidazol-2-yl)ethyl)amino)-1,4-dioxo-4-((S)-2-phenylpyrrolidin-1-yl)butan-2-yl)-2-oxaspiro[3.3]heptane-6-carboxamide] |
| 5.62 | O=C(N[C@@H](CC(=O)N1CCCC1C1CC1)C(=O)NC1(c2nc3cccc(F)c3[nH]2)CC1)C1CC2(C1)CC(F)(F)C2 (stereo partly drawn) [CEN-64, N-((2S)-4-(2-Cyclopropylpyrrolidin-1-yl)-1-((1-(7-fluoro-1H-benzo[d]imidazol-2-yl)cyclopropyl)amino)-1,4-dioxobutan-2-yl)-6,6-difluorospiro[3.3]heptane-2-carboxamide] |
| < 4.00 | C[C@H](NC(=O)[C@H](CC(=O)N1CCC[C@@H]1c1ccccc1)NC(=O)CCCC(F)(F)F)c1nc2ccccc2n1C [CEN-65, 5,5,5-Trifluoro-N—((S)-1-(((S)-1-(1-methyl-1H-benzo[d]imidazol-2-yl)ethyl)amino)-1,4-dioxo-4-((R)-2-phenylpyrrolidin-1-yl)butan-2-yl)pentanamide] |
| < 4.00 | C[C@H](NC(=O)[C@H](CC(=O)N1CCC[C@@H]1c1ccccc1)NC(=O)CCCC(F)(F)F)c1nc2ccccc2o1 [CEN-66, N—((S)-1-(((S)-1-(Benzo[d]oxazol-2-yl)ethyl)amino)-1,4-dioxo-4-((R)-2-phenylpyrrolidin-1-yl)butan-2-yl)-5,5,5-trifluoropentanamide] |
| < 4.00 | C[C@H](NC(=O)[C@H](CC(=O)N1CCC[C@@H]1c1ccccc1)NC(=O)CCCC(F)(F)F)c1nc2ccccc2s1 [CEN-67, N—((S)-1-(((S)-1-(Benzo[d]thiazol-2-yl)ethyl)amino)-1,4-dioxo-4-((R)-2-phenylpyrrolidin-1-yl)butan-2-yl)-5,5,5-trifluoropentanamide] |
| < 4.00 | C[C@H](NC(=O)[C@H](CC(=O)N1CCC[C@@H]1c1ccccc1)NC(=O)C1CC2(C1)CC(F)(F)C2)c1nc2ccccc2o1 [CEN-68, N—((S)-1-(((S)-1-(Benzo[d]oxazol-2-yl)ethyl)amino)-1,4-dioxo-4-((R)-2-phenylpyrrolidin-1-yl)butan-2-yl)-6,6-difluorospiro[3.3]heptane-2-carboxamide] |
| 4.85 | C[C@H](NC(=O)[C@@H](N)CC(=O)N1CCCC[C@@H]1C)c1ncc(-c2ccc(F)cc2F)[nH]1 [CEN-76, (S)-2-Amino-N—((S)-1-(5-(2,4-difluorophenyl)-1H-imidazol-2-yl)ethyl)-4-((S)-2-methylpiperidin-1-yl)-4-oxobutanamide] |

Source: patent US11203613B2, “Peptidomimetic proteasome inhibitors” (CORNELL UNIVERSITY, priority 2017, dated 2021)
